Tests used:
HyNaC2/3/7 = HyNaC2/3/7 (Hydra vulgaris (Hydra magnipapillata), UniProt A0A0A0MP73+A8DZR6+A8DZR7); assay: Inhibition of HyNaC2/3/7 currents in Xenopus oocytes (TEVC); assay type: cell-based; settings: HyNaC2/3/7
Experimental: (§1) One of the hallmarks of DEG/ENaCs is the block by the diuretic amiloride.
(§2) Figure 10 Diminazene is a potent inhibitor of HyNaCs. A) Current trace illustrating the concentration-dependent inhibition of HyNaC2/9/7 by diminazene. Block by 100 μM amiloride was used to compare the affinity for diminazene and amiloride. […] Dashed lines represent the zero current level. B) Concentration-response curves showing the concentration-dependent inhibition of HyNaCs by diminazene. HyNaCs, Hydra Na^+ channels.
(§3) To study the biophysical properties of the new HyNaCs, cRNA of HyNaCs was synthesized in vitro (mMessage mMachine kit, Ambion, Austin, Texas, USA) and injected into Xenopus laevis oocytes of stage V and VI. […] Whole cell currents were recorded from defolliculated oocytes by two-electrode voltage-clamp (TEVC) using the amplifier TurboTec 03X (npi electronic GmbH, Tamm, Germany). […]
(§4) EC50 values for Hydra-RFamides I and II as well as IC50 values for diminazene were determined by fits to the Hill equation using IGOR Pro (version 6.06, WaveMetrics, Inc.). Reversal potentials were defined as the first recorded data point, where currents reversed signs from negative to positive. […]

HyNaC2/3/6 = HyNaC2/3/6 (Hydra vulgaris (Hydra magnipapillata), UniProt A0A0A0MP54+A8DZR6+A8DZR7); assay: Inhibition of HyNaC2/3/6 currents in Xenopus oocytes (TEVC); assay type: cell-based; settings: HyNaC2/3/6
Experimental: as §1, §2, §3, §4

HyNaC2/3/5 = HyNaC2/3/5 (Hydra vulgaris (Hydra magnipapillata), UniProt A8DZR6+A8DZR7+D3UD58); assay: Inhibition of HyNaC2/3/5 currents in Xenopus oocytes (TEVC); assay type: cell-based; settings: HyNaC2/3/5
HyNaC2/3/5, sequence (A8DZR6 entry or part of it): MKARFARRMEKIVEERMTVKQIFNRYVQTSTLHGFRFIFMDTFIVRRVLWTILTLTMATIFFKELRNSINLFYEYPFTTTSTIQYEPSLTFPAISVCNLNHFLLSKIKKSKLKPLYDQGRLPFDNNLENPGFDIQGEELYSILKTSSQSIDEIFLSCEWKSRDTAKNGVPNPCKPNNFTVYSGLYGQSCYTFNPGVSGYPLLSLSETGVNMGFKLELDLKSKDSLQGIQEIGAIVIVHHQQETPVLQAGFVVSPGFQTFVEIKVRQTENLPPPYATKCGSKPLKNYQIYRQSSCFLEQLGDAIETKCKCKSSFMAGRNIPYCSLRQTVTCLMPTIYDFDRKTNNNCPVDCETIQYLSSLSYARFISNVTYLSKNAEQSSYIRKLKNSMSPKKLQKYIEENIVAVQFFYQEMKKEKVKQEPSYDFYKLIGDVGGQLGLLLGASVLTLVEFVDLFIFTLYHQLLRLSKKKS
HyNaC2/3/5, sequence (D3UD58 entry or part of it): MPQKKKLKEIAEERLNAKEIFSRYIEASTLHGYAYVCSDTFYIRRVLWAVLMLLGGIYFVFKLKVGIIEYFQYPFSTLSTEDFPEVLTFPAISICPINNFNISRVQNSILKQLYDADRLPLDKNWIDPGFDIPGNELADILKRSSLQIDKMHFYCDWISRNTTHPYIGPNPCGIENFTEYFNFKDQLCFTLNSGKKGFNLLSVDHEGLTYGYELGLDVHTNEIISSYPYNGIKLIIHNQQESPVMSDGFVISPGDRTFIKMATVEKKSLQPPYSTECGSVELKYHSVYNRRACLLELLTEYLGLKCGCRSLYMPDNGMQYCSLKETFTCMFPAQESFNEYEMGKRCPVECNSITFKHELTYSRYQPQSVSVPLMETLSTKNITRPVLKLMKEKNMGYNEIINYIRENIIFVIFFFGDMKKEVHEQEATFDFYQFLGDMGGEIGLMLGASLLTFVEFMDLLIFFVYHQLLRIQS
HyNaC2/3/5, sequence (A8DZR7 entry or part of it): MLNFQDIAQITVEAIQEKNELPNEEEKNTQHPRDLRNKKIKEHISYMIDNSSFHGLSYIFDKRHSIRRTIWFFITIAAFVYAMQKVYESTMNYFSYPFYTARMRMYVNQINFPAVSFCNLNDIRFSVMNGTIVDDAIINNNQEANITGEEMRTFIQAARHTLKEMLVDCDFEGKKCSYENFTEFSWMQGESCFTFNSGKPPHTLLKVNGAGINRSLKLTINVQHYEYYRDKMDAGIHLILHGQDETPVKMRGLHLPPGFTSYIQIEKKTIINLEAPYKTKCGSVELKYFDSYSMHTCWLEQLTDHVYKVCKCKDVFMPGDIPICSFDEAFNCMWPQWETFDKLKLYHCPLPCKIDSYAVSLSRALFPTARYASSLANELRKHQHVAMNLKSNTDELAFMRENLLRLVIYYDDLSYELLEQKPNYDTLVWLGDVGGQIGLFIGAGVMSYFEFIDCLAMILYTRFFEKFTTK
Experimental: as §1, §2, §3, §4

HyNaC2/11/5 = HyNaC2/11/5 (Hydra vulgaris (Hydra magnipapillata), UniProt A0A0A0MP55+A8DZR6+D3UD58); assay: Inhibition of HyNaC2/11/5 currents in Xenopus oocytes (TEVC); assay type: cell-based; settings: HyNaC2/11/5
HyNaC2/11/5, sequence (A0A0A0MP55 entry or part of it): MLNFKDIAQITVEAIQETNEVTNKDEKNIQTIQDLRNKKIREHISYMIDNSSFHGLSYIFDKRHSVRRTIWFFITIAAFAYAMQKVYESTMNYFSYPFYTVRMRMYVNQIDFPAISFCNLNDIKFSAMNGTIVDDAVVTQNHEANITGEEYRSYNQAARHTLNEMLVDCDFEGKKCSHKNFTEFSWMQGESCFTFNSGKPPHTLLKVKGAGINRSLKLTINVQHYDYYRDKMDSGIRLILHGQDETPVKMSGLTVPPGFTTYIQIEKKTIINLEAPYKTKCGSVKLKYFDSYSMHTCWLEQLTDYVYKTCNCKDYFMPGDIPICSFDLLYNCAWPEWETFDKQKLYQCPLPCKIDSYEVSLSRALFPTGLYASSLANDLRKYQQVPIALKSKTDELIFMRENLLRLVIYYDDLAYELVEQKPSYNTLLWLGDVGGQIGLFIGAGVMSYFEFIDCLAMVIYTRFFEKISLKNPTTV
HyNaC2/11/5, sequence (A8DZR6 entry or part of it): as the sequence (A8DZR6 entry or part of it) above
HyNaC2/11/5, sequence (D3UD58 entry or part of it): as the sequence (D3UD58 entry or part of it) above
Experimental: as §1, §2, §3, §4

HyNaCs = assay: Block of HyNaC currents (HyNaCs in general) in Xenopus oocytes; assay type: cell-based, Hydra magnipapillata; settings: most HyNaCs
Experimental: as §1, §2
To study the biophysical properties of the new HyNaCs, cRNA of HyNaCs was synthesized in vitro (mMessage mMachine kit, Ambion, Austin, Texas, USA) and injected into Xenopus laevis oocytes of stage V and VI. After injection, oocytes were incubated for one to two days at 19°C in oocyte Ringer’s solution 2 (OR-2), which contained (in mM): 82.5 NaCl, 2.5 KCl, 1.0 Na2HPO4, 1.0 MgCl2, 1.0 CaCl2, 5.0 HEPES, 0.5 g/l PVP, 1,000 U/l penicillin and 10 mg/l streptomycin, NaOH was used to adjust pH to 7.3. Whole cell currents were recorded from defolliculated oocytes by two-electrode voltage-clamp (TEVC) using the amplifier TurboTec 03X (npi electronic GmbH, Tamm, Germany). […]

Hydra magnipapillata = assay: Feeding reaction (tentacle curling induced by glutathione) of living Hydra; assay type: in vivo; settings: 10 μM GSH
Experimental: To find further evidence that amiloride inhibited the feeding reaction via inhibition of HyNaCs, we repeated these experiments with diminazene. Addition of glutathione (GSH; 10 μM final concentration) induced tentacle contractions and animals moved the tentacles to their mouth. After about two minutes, 100% of animals had their tentacles completely curled. […] Although the potency of diminazene in vivo was low, it should be taken into account that septate junctions provide a significant paracellular permeability barrier to the mesogleal space of Hydra. Moreover, it appears that diminazene requires active transport mechanisms for cellular uptake, probably strongly limiting its transcellular transport; amiloride in contrast is, in part, uncharged at neutral pH and has a significant membrane permeability.
Figure 11 Diminazene inhibits the feeding reaction of Hydra magnipapillata . Adult animals were held in plain medium or in medium containing 100, 200 or 300 μM diminazene (Dimi). The feeding response was induced by application of 10 μM glutathione (GSH). The number of animals showing complete tentacle curling was recorded every 30 seconds. *, P <0.05; **, P <0.01; ***, P <0.001.

HyNaC2/10/7 = HyNaC2/10/7 (Hydra vulgaris (Hydra magnipapillata), UniProt A0A0A0MP61+A0A0A0MP73+A8DZR6); assay: Inhibition of HyNaC2/10/7 currents in Xenopus oocytes (TEVC); assay type: cell-based; settings: HyNaC2/10/7
HyNaC2/10/7, sequence (A0A0A0MP61 entry or part of it): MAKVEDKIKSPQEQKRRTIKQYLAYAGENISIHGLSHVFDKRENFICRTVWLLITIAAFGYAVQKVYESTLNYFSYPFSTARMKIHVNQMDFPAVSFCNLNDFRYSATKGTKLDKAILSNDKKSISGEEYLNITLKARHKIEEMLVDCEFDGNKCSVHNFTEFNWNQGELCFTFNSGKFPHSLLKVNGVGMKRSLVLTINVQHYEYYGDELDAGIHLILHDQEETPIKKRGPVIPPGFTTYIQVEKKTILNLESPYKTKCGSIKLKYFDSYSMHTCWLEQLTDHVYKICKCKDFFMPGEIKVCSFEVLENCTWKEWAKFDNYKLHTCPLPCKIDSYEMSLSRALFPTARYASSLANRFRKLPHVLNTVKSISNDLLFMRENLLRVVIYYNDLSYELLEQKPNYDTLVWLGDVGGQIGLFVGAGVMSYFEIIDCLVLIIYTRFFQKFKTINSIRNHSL
HyNaC2/10/7, sequence (A0A0A0MP73 entry or part of it): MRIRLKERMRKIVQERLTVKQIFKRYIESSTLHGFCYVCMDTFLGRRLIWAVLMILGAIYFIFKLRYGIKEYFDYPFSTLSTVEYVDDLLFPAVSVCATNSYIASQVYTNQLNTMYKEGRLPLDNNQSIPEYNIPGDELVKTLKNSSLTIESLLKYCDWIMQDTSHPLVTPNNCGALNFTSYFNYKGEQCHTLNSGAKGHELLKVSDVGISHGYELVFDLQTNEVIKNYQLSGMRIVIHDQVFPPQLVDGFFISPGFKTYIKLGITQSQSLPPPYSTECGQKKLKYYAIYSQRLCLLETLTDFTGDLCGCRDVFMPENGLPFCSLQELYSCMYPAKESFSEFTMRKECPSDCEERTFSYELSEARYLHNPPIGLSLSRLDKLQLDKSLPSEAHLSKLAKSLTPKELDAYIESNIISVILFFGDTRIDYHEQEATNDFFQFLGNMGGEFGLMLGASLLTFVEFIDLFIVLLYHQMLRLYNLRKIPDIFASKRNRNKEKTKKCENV
HyNaC2/10/7, sequence (A8DZR6 entry or part of it): as the sequence (A8DZR6 entry or part of it) above
Experimental: as §1, §2, §3, §4

HyNaC2/4/6 = HyNaC2/4/6 (Hydra vulgaris (Hydra magnipapillata), UniProt A0A0A0MP54+A8DZR6+A8DZR8); assay: Inhibition of HyNaC2/4/6 currents in Xenopus oocytes (TEVC); assay type: cell-based; settings: HyNaC2/4/6
Experimental: as §1, §2, §3, §4

HyNaC2/9/7 = HyNaC2/9/7 (Hydra vulgaris (Hydra magnipapillata), UniProt A0A0A0MP48+A0A0A0MP73+A8DZR6); assay: Inhibition of HyNaC2/9/7 currents in Xenopus oocytes (TEVC); assay type: cell-based; settings: HyNaC2/9/7
Experimental: as §1, §2, §3, §4

N=C(N)c1ccc(/N=N/Nc2ccc(C(=N)N)cc2)cc1 [diminazene]
IC50 (HyNaC2/3/7): 160 ± 80 nM | IC50 (HyNaC2/3/6): 90 ± 20 nM | IC50 (HyNaC2/3/5): 450 ± 90 nM | IC50 (HyNaC2/11/5): 31400 ± 9400 nM | block of HyNaC currents (HyNaCs; 10 μM diminazene): almost completely blocked | potency relative to amiloride (HyNaCs; estimated): > 100 fold | tentacle curling (feeding reaction) (Hydra magnipapillata; 100 μM diminazene in medium): slightly delayed | initiation of tentacles movement (feeding reaction) (Hydra magnipapillata; 200 μM diminazene in medium): more strongly and significantly (P ≤0.01) delayed | feeding reaction (Hydra magnipapillata; 300 μM diminazene in medium): strongly inhibited the feeding reaction | animals with tentacles completely curled (Hydra magnipapillata; 300 μM diminazene in medium, after four minutes): 20% | IC50 (HyNaC2/10/7): 5400 ± 1450 nM | IC50 (HyNaC2/4/6): 50 ± 20 nM | IC50 (HyNaC2/9/7): 1700 ± 580 nM

— PMC4212090, “The comprehensive analysis of DEG/ENaC subunits in Hydra reveals a large variety of peptide-gated channels, potentially involved in neuromuscular transmission” (BMC Biology, 2014)
